Source: patent US7267715B2, “Ink and ink set” (Fujifilm Corporation, priority 2003, dated 2007)

Test: Oxidation potential by cyclic voltammetry
Type: physicochemical
Conditions: test method of the specification (dimethylformamide, tetrapropylammonium perchlorate)
Procedure: More specifically, a test sample is dissolved to a concentration of 1×10^−6 to 1×10^−4 mol/liter in a solvent such as dimethylformamide or acetonitrile containing a supporting electrolyte such as sodium perchlorate or tetrapropylammonium perchlorate and the oxidation potential is measured as a value to SCE (saturated calomel electrode) using a cyclic voltammetry. This value sometimes deviates on the order of tens of millivolt due to the effect of liquid junction potential, liquid resistance of sample solution, or the like, however, the reproducibility of potential can be guaranteed by adding a standard sample (for example, hydroquinone). In order to univocally specify the potential, in the present invention, the value (SCE standard) measured in a dimethylformamide (concentration of dye: 0.001·moldm^−3) containing 0.1 mol·dm^−3 of tetrapropylammonium perchlorate as the supporting electrolyte is used as the oxidation potential of the dye. In the case of a water-soluble dye, the dye is sometimes hardly dissolved directly in N,N-dimethylformamide. In such a case, the oxidation potential is measured after dissolving the dye by using water in a small amount as much as possible and then diluting it with N,N-dimethylformamide to have a water content of 2% or less.

Q: Which oxidation potential does the source give for Cc1c(C#N)c(Nc2ccc(S(=O)(=O)[O-])cc2)nc(Nc2ccc(S(=O)(=O)[O-])cc2)c1N=Nc1sc(N=Nc2cc(C(=O)[O-])cc(C(=O)[O-])c2)cc1C#N.[Li+].[Li+].[Li+].[Li+] [BK-4] here?
A: Its oxidation potential is 1.32 V (vs SCE).

Q: With Cc1cc(C)c(S(=O)(=O)[O-])c(C)c1Nc1nc(N(c2nc3ccc(S(=O)(=O)[O-])cc3s2)c2c(C)cc(C)c(S(=O)(=O)O)c2C)ccc1/N=N/c1c(C#N)c(C(C)(C)C)nn1-c1nc2ccc(S(=O)(=O)[O-])cc2s1.[K+].[K+].[Na+] [M-3] as the compound, how does the oxidation potential read?
A: Its oxidation potential is 1.29 V (vs SCE).

Q: With CC(C)(C)c1nn(-c2nc(Nc3cc(C(=O)[O-])cc(C(=O)[O-])c3)nc(Nc3cc(C(=O)[O-])cc(C(=O)[O-])c3)n2)c(N)c1/N=N/c1ncns1.[Na+].[Na+].[Na+].[Na+] [Y-2] as the compound, how does the oxidation potential read?
A: The oxidation potential was 1.25 V (vs SCE).

Q: Which oxidation potential does the source give for CC(C)CSc1nnc(/N=N/c2c(C(C)(C)C)nn(-c3nc(Nc4cc(C(=O)[O-])cc(C(=O)[O-])c4)nc(Nc4cc(C(=O)[O-])cc(C(=O)[O-])c4)n3)c2N)s1.[K+].[K+].[K+].[K+] [Y-3] here?
A: The oxidation potential was 1.22 V (vs SCE).
